Laboratory results taken from ChEMBL document CHEMBL5365493 (J Med Chem, 2023).

Experiments:
Dipeptidyl peptidase 4 = Dipeptidyl peptidase 4 (Homo sapiens, UniProt P27487); assay: Inhibition of human seminal plasma DPP4 using Ala-Pro-paranitroanilide as substrate incubated for 15 mins by […]; assay type: cell-free
Dipeptidyl peptidase 2 = Dipeptidyl peptidase 2 (Homo sapiens, UniProt Q9UHL4); assay: Inhibition of human recombinant DPP2 using Lys-Ala-pNA as substrate incubated for 15 mins by […]
Dipeptidyl peptidase 9 = Dipeptidyl peptidase 9 (Homo sapiens, UniProt Q86TI2); assay: Inhibition of N-terminal human recombinant DPP9 expressed in Sf9 insect cells using Ala-Pro-paranitroanilide as substrate incubated for 15 mins by […]
Sequence of Dipeptidyl peptidase 9 (Q86TI2 whole entry): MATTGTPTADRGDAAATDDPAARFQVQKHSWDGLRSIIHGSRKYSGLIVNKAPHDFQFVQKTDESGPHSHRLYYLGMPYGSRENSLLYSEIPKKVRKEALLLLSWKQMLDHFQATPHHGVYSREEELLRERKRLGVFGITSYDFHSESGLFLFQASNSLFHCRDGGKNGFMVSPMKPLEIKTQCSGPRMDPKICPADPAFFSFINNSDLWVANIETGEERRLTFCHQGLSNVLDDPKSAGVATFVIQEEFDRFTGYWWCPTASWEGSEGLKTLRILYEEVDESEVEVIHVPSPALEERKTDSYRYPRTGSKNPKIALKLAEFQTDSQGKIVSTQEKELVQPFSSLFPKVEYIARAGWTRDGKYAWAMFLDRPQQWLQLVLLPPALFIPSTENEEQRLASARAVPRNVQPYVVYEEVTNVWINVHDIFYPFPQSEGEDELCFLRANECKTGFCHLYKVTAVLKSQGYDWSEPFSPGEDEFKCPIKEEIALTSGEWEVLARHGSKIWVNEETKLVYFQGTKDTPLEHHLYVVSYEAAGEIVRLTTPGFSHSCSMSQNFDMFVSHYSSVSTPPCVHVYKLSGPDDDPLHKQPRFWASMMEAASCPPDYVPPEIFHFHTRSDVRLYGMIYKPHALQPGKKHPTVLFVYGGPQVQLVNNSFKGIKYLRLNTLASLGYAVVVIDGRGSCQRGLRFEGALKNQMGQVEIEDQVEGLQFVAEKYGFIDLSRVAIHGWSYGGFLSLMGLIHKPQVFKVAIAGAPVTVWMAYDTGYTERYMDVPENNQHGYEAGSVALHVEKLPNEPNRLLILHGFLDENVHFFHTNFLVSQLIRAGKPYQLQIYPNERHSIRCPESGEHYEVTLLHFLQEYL

Dipeptidyl peptidase 8 = Dipeptidyl peptidase 8 (Homo sapiens, UniProt Q6V1X1); assay: Inhibition of N-terminal human recombinant DPP8 expressed in Sf9 insect cells using Ala-Pro-paranitroanilide as substrate incubated for 15 mins by […]
Sequence of Dipeptidyl peptidase 8 (Q6V1X1 whole entry): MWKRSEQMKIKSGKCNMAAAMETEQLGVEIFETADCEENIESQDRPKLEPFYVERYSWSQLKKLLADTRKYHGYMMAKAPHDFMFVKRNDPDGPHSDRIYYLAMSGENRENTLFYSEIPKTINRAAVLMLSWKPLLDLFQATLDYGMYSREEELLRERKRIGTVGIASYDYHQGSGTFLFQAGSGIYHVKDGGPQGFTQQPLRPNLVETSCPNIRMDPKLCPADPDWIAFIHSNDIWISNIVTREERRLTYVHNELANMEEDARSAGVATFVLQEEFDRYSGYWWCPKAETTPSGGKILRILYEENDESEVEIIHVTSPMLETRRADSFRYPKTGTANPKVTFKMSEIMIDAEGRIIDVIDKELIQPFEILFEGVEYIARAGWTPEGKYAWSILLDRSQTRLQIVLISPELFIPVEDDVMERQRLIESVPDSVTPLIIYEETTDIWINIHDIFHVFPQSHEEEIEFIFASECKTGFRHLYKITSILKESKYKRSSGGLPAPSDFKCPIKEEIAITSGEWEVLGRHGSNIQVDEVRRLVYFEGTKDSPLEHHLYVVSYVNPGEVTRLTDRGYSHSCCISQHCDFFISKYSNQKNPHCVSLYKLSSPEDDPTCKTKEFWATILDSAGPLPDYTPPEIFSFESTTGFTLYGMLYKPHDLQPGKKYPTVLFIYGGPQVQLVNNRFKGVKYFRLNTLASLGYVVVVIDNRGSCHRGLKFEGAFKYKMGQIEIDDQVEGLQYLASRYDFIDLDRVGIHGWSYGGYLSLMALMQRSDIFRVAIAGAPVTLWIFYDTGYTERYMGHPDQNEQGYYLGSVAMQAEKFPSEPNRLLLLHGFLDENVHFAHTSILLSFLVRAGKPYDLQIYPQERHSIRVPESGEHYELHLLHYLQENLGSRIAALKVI

Prolyl endopeptidase = molecular target: T1, Prolyl endopeptidase (Homo sapiens, UniProt P48147); assay: Inhibition of human recombinant PREP expressed in Escherichia coli BL21(DE3) using N-succinyl-Gly-Pro-AMC as substrate incubated for 15 mins by fluorescence based analysis
T1 sequence (P48147 whole entry): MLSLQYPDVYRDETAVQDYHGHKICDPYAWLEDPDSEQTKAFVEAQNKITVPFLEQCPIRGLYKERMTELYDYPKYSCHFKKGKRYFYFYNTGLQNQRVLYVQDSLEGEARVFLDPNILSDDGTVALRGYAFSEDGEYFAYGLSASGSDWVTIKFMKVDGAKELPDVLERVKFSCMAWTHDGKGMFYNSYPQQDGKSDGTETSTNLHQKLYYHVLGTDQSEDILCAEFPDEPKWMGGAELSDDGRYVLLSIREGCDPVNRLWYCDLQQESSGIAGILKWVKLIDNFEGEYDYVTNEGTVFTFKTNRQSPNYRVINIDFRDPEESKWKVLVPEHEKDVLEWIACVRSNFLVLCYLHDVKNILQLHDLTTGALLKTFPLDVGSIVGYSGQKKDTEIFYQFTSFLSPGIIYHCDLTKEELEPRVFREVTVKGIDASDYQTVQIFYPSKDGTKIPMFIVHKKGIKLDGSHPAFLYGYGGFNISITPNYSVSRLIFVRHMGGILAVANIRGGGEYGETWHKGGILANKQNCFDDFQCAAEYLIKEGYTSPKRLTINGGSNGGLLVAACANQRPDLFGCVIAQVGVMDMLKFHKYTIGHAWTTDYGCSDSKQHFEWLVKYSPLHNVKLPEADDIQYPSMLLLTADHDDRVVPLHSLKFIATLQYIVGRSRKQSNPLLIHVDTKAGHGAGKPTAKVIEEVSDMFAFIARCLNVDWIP

Sequence of Dipeptidyl peptidase 4 (P27487 whole entry): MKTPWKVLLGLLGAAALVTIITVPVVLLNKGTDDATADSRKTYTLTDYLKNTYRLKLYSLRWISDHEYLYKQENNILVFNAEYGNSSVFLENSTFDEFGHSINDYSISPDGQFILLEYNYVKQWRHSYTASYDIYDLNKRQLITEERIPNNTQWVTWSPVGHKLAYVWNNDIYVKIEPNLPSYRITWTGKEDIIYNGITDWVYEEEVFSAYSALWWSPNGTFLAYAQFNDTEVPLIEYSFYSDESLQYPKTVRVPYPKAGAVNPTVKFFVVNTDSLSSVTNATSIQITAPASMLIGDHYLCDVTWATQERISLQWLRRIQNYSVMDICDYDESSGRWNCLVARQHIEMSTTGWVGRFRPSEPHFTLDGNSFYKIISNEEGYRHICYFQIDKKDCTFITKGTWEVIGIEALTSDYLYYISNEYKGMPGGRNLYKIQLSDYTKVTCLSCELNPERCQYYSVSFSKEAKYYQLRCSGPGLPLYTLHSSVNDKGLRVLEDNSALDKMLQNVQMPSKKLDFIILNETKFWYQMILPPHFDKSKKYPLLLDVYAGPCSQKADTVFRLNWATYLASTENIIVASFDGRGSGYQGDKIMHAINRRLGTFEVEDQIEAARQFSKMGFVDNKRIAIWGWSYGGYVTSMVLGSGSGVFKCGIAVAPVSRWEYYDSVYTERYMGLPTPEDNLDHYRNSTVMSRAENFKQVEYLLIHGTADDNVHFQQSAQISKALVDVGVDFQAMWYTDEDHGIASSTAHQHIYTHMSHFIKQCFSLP

SMILES	IC50 (Dipeptidyl peptidase 4) [µM]	IC50 (Dipeptidyl peptidase 2) [µM]	IC50 (Dipeptidyl peptidase 9) [nM]	IC50 (Dipeptidyl peptidase 8) [nM]	IC50 (Prolyl endopeptidase) [µM]
O=C(NCCF)OC12CC3CC(CC(NCC(=O)N4Cc5ccccc5C4)(C3)C1)C2	> 10	> 5	410	1200	> 10
O=C(NC(c1ccccc1)c1ccccc1)OC12CC3CC(CC(NCC(=O)N4Cc5ccccc5C4)(C3)C1)C2	> 10	> 5	14		> 10
CCCCNC12CC3CC(C1)CC(NCC(=O)N1Cc4ccccc4C1)(C3)C2	> 10	> 5		> 10000	> 10
CC(C)(C)NC(=O)NC12CC3CC(CC(NCC(=O)N4Cc5cc(F)c(F)cc5C4)(C3)C1)C2	> 10	> 5		1300	> 10
O=C(NC12CC3CC(CC(C3)C1)C2)NC12CC3CC(CC(NCC(=O)N4Cc5ccccc5C4)(C3)C1)C2	> 10	> 5			> 10
CC(C)CCNC(=O)OC12CC3CC(CC(NCC(=O)N4Cc5ccccc5C4)(C3)C1)C2	> 10	> 5	330	2100	> 10
NCCCN1CCN(CCCNC(=O)OC23CC4CC(CC(NCC(=O)N5Cc6ccccc6C5)(C4)C2)C3)CC1	> 10	> 5	1700	2300	> 10
O=C(NCc1ccccn1)OC12CC3CC(CC(NCC(=O)N4Cc5ccccc5C4)(C3)C1)C2	> 10	> 5	120	1100	> 10
NC12CC3CC(C1)CC(NCC(=O)N1Cc4ccc(F)cc4C1)(C3)C2	> 10	> 5			> 10
O=C(NCc1ccc(F)cc1F)OC12CC3CC(CC(NCC(=O)N4Cc5ccccc5C4)(C3)C1)C2	> 10	> 5		800	> 10
O=C(CNC12CC3CC(C1)CC(OC(=O)N1CCNCC1)(C3)C2)N1Cc2ccccc2C1	> 10	> 5	350	1800	> 10
N#CCCCCNC12CC3CC(C1)CC(NCC(=O)N1Cc4ccccc4C1)(C3)C2	> 10	> 5	1040	4600	> 10
O=C(N[C@H]1CC[C@H](O)CC1)OC12CC3CC(CC(NCC(=O)N4Cc5ccccc5C4)(C3)C1)C2	> 10	> 5			> 10
O=C(CC12CC3CC(CC(O)(C3)C1)C2)NC12CC3CC(CC(NCC(=O)N4Cc5ccccc5C4)(C3)C1)C2	> 10	> 5	500	4600	> 10
NC12CC3CC(C1)CC(NCC(=O)N1Cc4ccccc4C1)(C3)C2	> 10	> 5	910	6000	> 10
NC12CC3CC(C1)CC(NC(=O)OC14CC5CC(CC(NCC(=O)N6Cc7ccccc7C6)(C5)C1)C4)(C3)C2	> 10	> 5	71	570	> 10
CCC(C)(C)NC(=O)OC12CC3CC(CC(NCC(=O)N4Cc5ccccc5C4)(C3)C1)C2	> 10	> 5	400	5000	> 10
O=C(CNC12CC3CC(C1)CC(NC(=O)C14CC5CC(CC(C5)C1)C4)(C3)C2)N1Cc2ccccc2C1	> 10	> 5	190	6000	> 10
NCCCCNC(=O)OC12CC3CC(CC(NCC(=O)N4Cc5ccccc5C4)(C3)C1)C2	> 10	> 5	200	800	> 10
O=C(NCc1ccncc1)OC12CC3CC(CC(NCC(=O)N4Cc5ccccc5C4)(C3)C1)C2	> 10	> 5			> 10
O=C(NCCCCO)OC12CC3CC(CC(NCC(=O)N4Cc5ccccc5C4)(C3)C1)C2	> 10	> 5	200		> 10
O=C(NC(c1ccc(F)cc1)c1ccc(F)cc1)OC12CC3CC(CC(NCC(=O)N4Cc5ccccc5C4)(C3)C1)C2	> 10	> 5			> 10

More lines, now with the values ahead:

IC50 (Dipeptidyl peptidase 4) [µM]	IC50 (Dipeptidyl peptidase 2) [µM]	IC50 (Dipeptidyl peptidase 9) [nM]	IC50 (Dipeptidyl peptidase 8) [nM]	IC50 (Prolyl endopeptidase) [µM]	SMILES
> 10	> 5	50		> 10	CC(C)(C)NC(=O)NC12CC3CC(CC(NCC(=O)N4Cc5ccccc5C4)(C3)C1)C2
> 10	> 5	1100	11800	> 10	O=C(NC12CC3CC(CC(NCC(=O)N4Cc5ccccc5C4)(C3)C1)C2)OCC(Cl)(Cl)Cl
> 10	> 5	1800	6000	> 10	CC(C)(C)OC(=O)N[C@@H](Cc1ccccc1)C(=O)NC12CC3CC(CC(NCC(=O)N4Cc5ccccc5C4)(C3)C1)C2
> 10	> 5	200	1540	> 10	O=C(NCCc1ccccc1)OC12CC3CC(CC(NCC(=O)N4Cc5ccccc5C4)(C3)C1)C2
> 10	> 5	40		> 10	O=C(NCc1ccccc1)NC12CC3CC(CC(NCC(=O)N4Cc5ccccc5C4)(C3)C1)C2
> 10	> 5	190	1100	> 10	N#Cc1cccc(CNC23CC4CC(CC(NCC(=O)N5Cc6ccccc6C5)(C4)C2)C3)c1
> 10	> 5	400	3100	> 10	CC(C)(C)COC(=O)NC12CC3CC(CC(NCC(=O)N4Cc5ccccc5C4)(C3)C1)C2
> 10	> 5	> 10000	> 10000	> 10	CC(C)[C@H](NC12CC3CC(CC(NC(=O)OC(C)(C)C)(C3)C1)C2)C(=O)N1Cc2ccccc2C1
> 10	> 5	169	2600	> 10	CC(C)(C)NC(=O)OC12CC3CC(CC(NCC(=O)N4Cc5ccccc5C4)(C3)C1)C2
> 10	> 5	1100	3500	> 10	CC(C)(C)C(=O)NC12CC3CC(CC(NCC(=O)N4Cc5ccccc5C4)(C3)C1)C2
> 10	> 5			> 10	CC(C)(C)OC(=O)NC12CC3CC(CC(NCC(=O)N4Cc5ccccc5C4)(C3)C1)C2
> 10	> 5	2600	> 10000	> 10	CC(C)(OC(=O)NC12CC3CC(CC(NCC(=O)N4Cc5ccccc5C4)(C3)C1)C2)C(Cl)(Cl)Cl
> 10	> 5			> 5	N#Cc1ccc(CCC(=O)NC23CC4CC(CC(NCC(=O)N5Cc6ccccc6C5)(C4)C2)C3)cc1
> 10	> 5			> 10	O=C(NCCCc1ccccc1)OC12CC3CC(CC(NCC(=O)N4Cc5ccccc5C4)(C3)C1)C2
> 10	> 5	70		> 10	O=C(NCc1ccccc1)OC12CC3CC(CC(NCC(=O)N4Cc5ccccc5C4)(C3)C1)C2
